Here are results for five compounds from patent US9462810B2, “Method for inactivating viruses with slightly acidic arginine” (AJINOMOTO CO., INC., priority 2007, dated 2016).

Assay [1] relates to herpes simplex viruses type 1, strain F (HSV-1). As to the kind of experiment: HSV-1 inactivation by buffer solutions on ice for one hour, residual titer by plaque assay on Vero cells. It is filed as cell-based.
Assay [2] deals with Sendai viruses. The assay is described as follows: Sendai virus inactivation by buffer solutions on ice for one hour, residual titer by plaque assay on Vero cells. Type of assay: cell-based. As to conditions: 0.7M, pH 4.0, on ice one hour.
Assay [3] concerns influenza virus A/Aichi (H3N2). It is filed as cell-based. The note with it: 0.15M, two minutes.
Assay [4] deals with Influenza A viruses/Aichi. Type of assay: cell-based, Influenza A virus.
In assay [5] the test system is BVDV. The note with it: 16 mM, 30° C., 10 hours, pH 4.5; cited from earlier work.
[6] abbreviates: Concentration 0.07 M, pH 4.0 (Example 4).
[7] abbreviates: Concentration 0.14 M, pH 4.0 (Example 4).
Where [8] appears, read: Concentration 0.21 M, pH 4.0 (Example 4).
Setting [9] is: Concentration 0.28 M, pH 4.0 (Example 4).

Read-outs that look alike come from different tables or passages of the source.

Regarding `CCCC(=O)N[C@@H](CCCNC(=N)N)C(=O)O` [Nα-butyroyl-L-arginine], the “Virus Inactivating Efficiency (LRV)” value in assay [1] (0.35M, pH 4.0 (Example 3)) is on record as above 5.5; in assay [1] (setting [6]) it was 0.7; in assay [1] (setting [7]) it was 2.2; in assay [1] (setting [8]), 4.3; in assay [1] (setting [9]), 6.0; in assay [2] it was above 3.7. The “Virus Inactivating Efficiency (LRV)” value in assay [3] (pH 4.0, 21.6° C.) is on record as 4.05; in assay [4] (0.7M, pH 4.0, on ice one hour), 3.7.

Turning to `CCCCCCCC(=O)O` [caprylic acid], the “titer of BVDV decreased to” value in assay [5] was 1/10000.

Consider `Cl.N=C(N)NCCC[C@H](N)C(=O)O` [arginine hydrochloride], for which the “Virus Inactivating Efficiency (LRV)” value in assay [1] (0.35M, pH 4.0 (Example 3)) is reported as 4.2; in assay [1] (setting [6]) it was 0.5; in assay [1] (setting [7]), 1.1; in assay [1] (setting [8]), 2.2; in assay [1] (setting [9]), 3.1; in assay [1] (Concentration 0.35 M, pH 4.0 (Example 4)) it was 4.5. In addition, the “Virus Inactivating Efficiency (LRV)” value in assay [3] (pH 4.0, 21.6° C.) stood at 3.87; in assay [4] (0.7M, 20 mM sodium acetate, pH 4.0, on ice one hour) it was 3.7; in assay [4] (1M, pH 4.3, on ice one hour), 2.4.

Take `O=C([O-])CC(O)(CC(=O)[O-])C(=O)[O-].[Na+].[Na+].[Na+]` [sodium citrate, reference compound]: the “Virus Inactivating Efficiency (LRV)” value was above 5.7 in assay [1] (0.1M, pH 3.5, on ice one hour (Example 1)); above 5.7 in assay [1] (0.1M, pH 3.5, on ice one hour (Example 1), listed as citrate buffer solution); 1.5 in assay [1] (0.1M, pH 4.0, on ice one hour (Example 1)); 0.1 in assay [1] (0.1M, pH 4.3, on ice one hour (Example 1)); “the inactivation did not take place” in assay [1] (0.1M, pH 4.3, on ice one hour (Example 1), listed as citrate buffer solution); 2.74 in assay [3] (pH 3.8, 21.6° C.). Further, the “Virus Inactivating Efficiency (LRV)” value in assay [3] (pH 4.0, 21.6° C.) is reported as 2.66; in assay [3] (pH 4.2, 21.6° C.), 2.95; in assay [4] (0.1M, pH 3.5, on ice one hour), 2.1; in assay [4] (0.1M, pH 4.0, on ice one hour), 1.5; in assay [4] (0.1M, pH 4.3, on ice one hour) it was 1.3. Further, in assay [3] (within the pH range of 3.8 to 4.2, 21.6° C.), the “maximum LRV” value is recorded as at most 2.95.

`O=C1CC[C@@H](C(=O)O)N1` [PCA, pyrrolidone carboxylic acid]: the “Virus Inactivating Efficiency (LRV)” value was determined as 4.05 in assay [3] (pH 4.0, 21.6° C.) and 2.95 in assay [3] (pH 4.2, 21.6° C.).
